Calls of active or inactive are those of the source. No cut-off for these calls is given here.
Experiments:
[1] = tested on: Tripleurospermum inodorum; experiment: Herbicidal activity against Tripleurospermum maritimum subsp. inodorum assessed as killing measured after 21 days after treatment by post-emergence herbicidal activity assay; format: functional
Viola arvensis = experiment: Herbicidal activity against Viola arvensis assessed as killing measured after 21 days after treatment by post-emergence herbicidal activity assay; format: functional
Veronica hederifolia = experiment: Herbicidal activity against Veronica hederaefolia assessed as killing measured after 21 days after treatment by post-emergence herbicidal activity assay; format: functional
Stellaria media = experiment: Herbicidal activity against Stellaria media assessed as killing measured after 21 days after treatment by post-emergence herbicidal activity assay; format: functional
[2] = target: T1, Protoporphyrinogen oxidase 2 (Spinacia oleracea) (UniProt Q94IG7); experiment: Inhibition of Stellaria media protoporphyinogen oxidase assessed as herbicidal activity at 0.3 g/ha measured after 14 days after treatment under greenhouse by time-course analysis; parameters: scale not given: the % may be the effect or the level left
T1 sequence (whole entry): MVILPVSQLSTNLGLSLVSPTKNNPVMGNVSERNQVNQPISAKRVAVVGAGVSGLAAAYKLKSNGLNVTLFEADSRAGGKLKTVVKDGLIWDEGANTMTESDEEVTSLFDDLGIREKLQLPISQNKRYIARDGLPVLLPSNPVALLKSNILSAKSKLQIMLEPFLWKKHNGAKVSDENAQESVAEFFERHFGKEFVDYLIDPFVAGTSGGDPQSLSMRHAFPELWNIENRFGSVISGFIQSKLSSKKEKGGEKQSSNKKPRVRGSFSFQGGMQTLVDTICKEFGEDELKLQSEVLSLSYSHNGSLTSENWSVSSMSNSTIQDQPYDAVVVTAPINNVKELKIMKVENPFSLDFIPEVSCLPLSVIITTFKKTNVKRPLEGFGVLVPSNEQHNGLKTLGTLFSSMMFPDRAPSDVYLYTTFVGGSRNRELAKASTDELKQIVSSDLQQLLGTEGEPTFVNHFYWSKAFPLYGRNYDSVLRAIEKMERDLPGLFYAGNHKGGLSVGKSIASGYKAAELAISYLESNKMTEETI

Galium aparine = experiment: Herbicidal activity against Galium aparine assessed as killing measured after 21 days after treatment by post-emergence herbicidal activity assay; format: functional
[3] = target: T2, Protoporphyrinogen oxidase, chloroplastic (Nicotiana tabacum) (UniProt O24163); experiment: Inhibition of Galium aparine protoporphyrinogen oxidase by post-emergence herbicidal activity assay
T2 sequence (whole entry): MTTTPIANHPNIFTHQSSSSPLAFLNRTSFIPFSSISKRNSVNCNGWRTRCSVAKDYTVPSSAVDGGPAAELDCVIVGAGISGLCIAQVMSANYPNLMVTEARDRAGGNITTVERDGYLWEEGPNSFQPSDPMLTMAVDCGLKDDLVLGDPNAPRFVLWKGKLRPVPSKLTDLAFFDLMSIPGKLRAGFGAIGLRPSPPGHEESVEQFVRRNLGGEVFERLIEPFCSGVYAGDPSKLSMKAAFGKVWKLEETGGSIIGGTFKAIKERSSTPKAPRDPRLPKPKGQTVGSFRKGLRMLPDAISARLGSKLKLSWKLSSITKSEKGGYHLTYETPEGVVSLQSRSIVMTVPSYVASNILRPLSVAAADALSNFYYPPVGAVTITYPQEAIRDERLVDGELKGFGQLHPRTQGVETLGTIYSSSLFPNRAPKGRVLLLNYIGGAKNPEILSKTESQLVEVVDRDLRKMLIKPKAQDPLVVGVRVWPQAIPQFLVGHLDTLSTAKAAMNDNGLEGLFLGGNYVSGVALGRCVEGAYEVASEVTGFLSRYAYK

[4] = target: T1, Protoporphyrinogen oxidase 2 (Spinacia oleracea); experiment: Inhibition of Stellaria media protoporphyrinogen oxidase by post-emergence herbicidal activity assay
[5] = target: T1, Protoporphyrinogen oxidase 2 (Spinacia oleracea); experiment: Inhibition of Stellaria media protoporphyinogen oxidase assessed as herbicidal activity at 10 g/ha measured after 21 days after treatment under greenhouse by time-course analysis; parameters: scale not given: the % may be the effect or the level left
[6] = target: T3, Protoporphyrinogen IX oxidase (Cichorium intybus) (UniProt Q9SPL6); experiment: Inhibition of Tripleurospermum maritimum subsp. inodorum protoporphyrinogen oxidase by post-emergence herbicidal activity assay
T3 sequence (whole entry): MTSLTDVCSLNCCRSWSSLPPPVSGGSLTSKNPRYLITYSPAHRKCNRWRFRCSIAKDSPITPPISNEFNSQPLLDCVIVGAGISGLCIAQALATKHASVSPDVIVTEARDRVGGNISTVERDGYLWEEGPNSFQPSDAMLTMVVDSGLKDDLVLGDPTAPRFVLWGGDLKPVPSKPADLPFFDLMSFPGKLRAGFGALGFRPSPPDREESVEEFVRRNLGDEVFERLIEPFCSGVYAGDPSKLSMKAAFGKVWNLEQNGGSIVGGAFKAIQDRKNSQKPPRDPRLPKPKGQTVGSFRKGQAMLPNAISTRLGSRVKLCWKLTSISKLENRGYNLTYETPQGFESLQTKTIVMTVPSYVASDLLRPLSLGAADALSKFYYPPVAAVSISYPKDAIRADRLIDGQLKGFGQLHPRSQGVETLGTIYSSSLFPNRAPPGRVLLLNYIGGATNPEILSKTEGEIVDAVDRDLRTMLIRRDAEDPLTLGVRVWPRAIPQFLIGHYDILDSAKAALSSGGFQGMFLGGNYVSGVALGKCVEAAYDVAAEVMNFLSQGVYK

[7] = target: T2, Protoporphyrinogen oxidase, chloroplastic (Nicotiana tabacum); experiment: Inhibition of Veronica hederaefolia protoporphyrinogen oxidase by post-emergence herbicidal activity assay; conditions: Veronica hederifolia
[8] = target: T4, Protoporphyrinogen oxidase (Medicago truncatula) (UniProt G7L3C0); experiment: Inhibition of Viola arvensis protoporphyrinogen oxidase by post-emergence herbicidal activity assay
T4 sequence (whole entry): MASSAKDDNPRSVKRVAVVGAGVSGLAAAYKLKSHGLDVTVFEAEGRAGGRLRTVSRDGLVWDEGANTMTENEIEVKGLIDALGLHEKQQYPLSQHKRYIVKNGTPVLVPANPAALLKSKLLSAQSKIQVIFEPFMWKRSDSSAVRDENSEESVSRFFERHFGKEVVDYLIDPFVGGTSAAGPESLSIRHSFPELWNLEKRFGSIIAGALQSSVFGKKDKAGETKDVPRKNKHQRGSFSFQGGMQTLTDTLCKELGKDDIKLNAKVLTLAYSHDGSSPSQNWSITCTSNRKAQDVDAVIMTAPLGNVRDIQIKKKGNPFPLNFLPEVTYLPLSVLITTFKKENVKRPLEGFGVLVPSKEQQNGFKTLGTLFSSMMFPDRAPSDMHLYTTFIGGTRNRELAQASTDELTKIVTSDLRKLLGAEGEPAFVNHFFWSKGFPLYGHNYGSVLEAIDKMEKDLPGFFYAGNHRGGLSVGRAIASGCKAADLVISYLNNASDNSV

[9] = target: T1, Protoporphyrinogen oxidase 2 (Spinacia oleracea); experiment: Inhibition of Stellaria media protoporphyinogen oxidase assessed as herbicidal activity at 50 g/ha measured after 9 days after treatment under greenhouse by time-course analysis; parameters: scale not given: the % may be the effect or the level left
[10] = target: T1, Protoporphyrinogen oxidase 2 (Spinacia oleracea); experiment: Inhibition of Stellaria media protoporphyinogen oxidase assessed as herbicidal activity at 100 g/ha measured after 21 days after treatment under greenhouse by time-course analysis; parameters: scale not given: the % may be the effect or the level left
[11] = target: T1, Protoporphyrinogen oxidase 2 (Spinacia oleracea); experiment: Inhibition of Stellaria media protoporphyinogen oxidase assessed as herbicidal activity at 100 g/ha measured after 1 days after treatment under greenhouse by time-course analysis

Compound | ED90 [1] [gAi/ha] | ED90 (Viola arvensis) [gAi/ha] | ED90 (Veronica hederifolia) [gAi/ha] | ED90 (Stellaria media) [gAi/ha] | Activity [2] [%] | ED90 (Galium aparine) [gAi/ha] | ED90 [3] [gAi/ha] | ED90 [4] [gAi/ha] | Activity [5] [%] | ED90 [6] [gAi/ha] | ED90 [7] [gAi/ha] | ED90 [8] [gAi/ha] | Activity [9] [%] | Activity [10] [%] | Activity [11]
COC(=O)c1ccccc1S(=O)(=O)NC(=O)Nc1nc(C)nc(OC)n1 [METSULFURON-METHYL] | 0.3 | 5 | 50 | 0.3 | 90 | >100 | – | – | – | – | – | – | – | – | –
CCOC(=O)C(Cl)Cc1cc(-n2nc(C)n(C(F)F)c2=O)c(F)cc1Cl (stereo not given) | – | – | – | – | – | – | 1.5 | 10 | > 90 | 1.5 | 1 | 5 | – | – | –
N#Cc1cc(I)c(O)c(I)c1 [IOXYNIL] | 30 | 50 | 50 | 50 | – | 100 | – | – | – | – | – | – | 90 | – | –
COC(=O)c1cc(Oc2ccc(Cl)cc2Cl)ccc1[N+](=O)[O-] | – | – | – | – | – | – | 50 | 100 | – | 15 | 30 | 20 | – | < 90 | –
Cc1cc(Cl)ccc1O[C@@H](C)C(=O)O [MECOPROP-P] | 1000 | 1000 | 300 | 100 | – | 300 | – | – | – | – | – | – | – | – | Active

From ChEMBL document CHEMBL3044865, “Herbicidal Activity and Characteristics of Pyraflufen-ethyl for Controlling Broad-leaved Weeds in Cereals” (J Pestic Sci, 2002)
